Assay results: patent US11203587B2, “Thyroid hormone receptor beta agonist compounds” (Terns, Inc., priority 2018, dated 2021)

Assays:
[1] = biological target: T1, THR beta-LBD (Homo sapiens, UniProt P10828); experiment: LanthaScreen TR-FRET Thyroid Receptor beta Coactivator Assay; assay type: biochemical; details: for THRβ-Selectivity: THR beta over THR alpha, derived from T3-selectivity normalized data; for EC50: TR-FRET coactivator assay, 2 hours incubation at room temperature, run in duplicate multiple times, average data, read-out: EC50 THRβ-FRET
T1 construct: THR alpha-LBD (0.4 nM final concentration) or THR beta-LBD (1.0 nM final concentration) was added; purchased ThermoFisher
T1 sequence (P10828 217-461 limits assumed): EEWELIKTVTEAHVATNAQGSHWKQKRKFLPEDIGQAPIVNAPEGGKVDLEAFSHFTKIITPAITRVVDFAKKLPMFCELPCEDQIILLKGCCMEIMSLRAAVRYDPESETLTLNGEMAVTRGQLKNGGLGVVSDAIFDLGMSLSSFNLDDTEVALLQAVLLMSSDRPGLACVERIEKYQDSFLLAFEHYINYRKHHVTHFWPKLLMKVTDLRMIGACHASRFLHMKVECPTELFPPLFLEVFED
Method: LanthaScreen™ TR-FRET Thyroid Receptor alpha Coactivator Assay kit (ThermoFisher) and LanthaScreen™ TR-FRET Thyroid Receptor beta Coactivator Assay kit (ThermoFisher) were used for agonist compound screening. […] Buffer C (ThermoFisher) was added to each well before the 4× mixture of fluorescein-SCR2-2 coactivator (200 nM final concentration), Terbium-labeled anti-GST antibody (2 nM final concentration), and THR alpha-LBD (0.4 nM final concentration) or THR beta-LBD (1.0 nM final concentration) was added.

[2] = biological target: T2, THR alpha-LBD (Homo sapiens, UniProt P10827); experiment: LanthaScreen TR-FRET Thyroid Receptor alpha Coactivator Assay; assay type: biochemical; details: 2 hours incubation at room temperature, run in duplicate multiple times, average data, read-out: EC50 THRα-FRET
T2 construct: THR alpha-LBD (0.4 nM final concentration) or THR beta-LBD (1.0 nM final concentration) was added; purchased ThermoFisher
Method: Example B1: Time-Resolved Fluorescence Resonance Energy Transfer (TR-FRET) Assay for Thyroid Hormone Receptor Agonist Screening
LanthaScreen™ TR-FRET Thyroid Receptor alpha Coactivator Assay kit (ThermoFisher) and LanthaScreen™ TR-FRET Thyroid Receptor beta Coactivator Assay kit (ThermoFisher) were used for agonist compound screening. Compounds in DMSO were diluted using ECHO Liquid Handler (Labcyte Inc.) into 384 plates in 10-point 3-fold series in duplicate (5 micro M final top concentration). Buffer C (ThermoFisher) was added to each well before the 4× mixture of fluorescein-SCR2-2 coactivator (200 nM final concentration), Terbium-labeled anti-GST antibody (2 nM final concentration), and THR alpha-LBD (0.4 nM final concentration) or THR beta-LBD (1.0 nM final concentration) was added. After 2 hours incubation at room temperature in the dark, the TR-FRET signal was measured on an EnVision plate reader (PerkinElmer) with excitation at 340 nm and dual emission readout at 495 and 520 nm with the delay time of 100 micro second and the integration time of 200 micro second. The ratio of emission signal at 520 and at 495 was used to calculate EC50 using GraphPad Prism (GraphPad Software). […] Compounds' THR-beta selectivity values in Table 2 are derived from T3-selectivity normalized data.

T2 sequence (P10827 163-410 isoform P10827-2 limits assumed, other chains not shown): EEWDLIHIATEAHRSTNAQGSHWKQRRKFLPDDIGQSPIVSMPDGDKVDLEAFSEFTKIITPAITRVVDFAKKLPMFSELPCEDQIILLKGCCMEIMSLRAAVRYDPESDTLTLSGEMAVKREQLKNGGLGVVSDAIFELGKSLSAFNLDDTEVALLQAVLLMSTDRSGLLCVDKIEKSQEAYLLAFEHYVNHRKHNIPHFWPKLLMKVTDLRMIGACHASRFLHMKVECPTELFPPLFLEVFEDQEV

| Compound | THRβ-Selectivity ([1]; listed as 31 P1) | EC50 [1] [nM] | EC50 [2] [nM] | THRβ-Selectivity [1] | THRβ-Selectivity ([1]; listed as 33 P1) | THRβ-Selectivity ([1]; listed as 33 P2) |
| --- | --- | --- | --- | --- | --- | --- |
| C[C@@H](O)c1cc(Oc2c(Cl)cc(-c3nn(C)c(=O)[nH]c3=O)cc2Cl)n[nH]c1=O (single isomer, unassigned) [Compound 31 P1] | >26.2 | 1200 | > 5000 | – | – | – |
| C[C@@H](O)c1cc(Oc2c(Cl)cc(-c3nn(C)c(=O)[nH]c3=O)cc2Cl)n[nH]c1=O (single isomer, unassigned) [Compound 31 P2] | – | 452 | 3080 | 21.7 | – | – |
| CC[C@@H](C)c1cc(Oc2c(Cl)cc(-c3n[nH]c(=O)[nH]c3=O)cc2Cl)n[nH]c1=O (single isomer, unassigned) [Compound 33 P1] | – | 696 | 2430 | – | 11.3 | – |
| CC[C@@H](C)c1cc(Oc2c(Cl)cc(-c3n[nH]c(=O)[nH]c3=O)cc2Cl)n[nH]c1=O (single isomer, unassigned) [Compound 33 P2] | – | 65.7 | 274 | – | – | 14.1 |
| CC(C)c1cc(Oc2c(Cl)cc(-c3n[nH]c(=O)[nH]c3=O)cc2Cl)nn(C)c1=O [Compound 1, 6-(3,5-dichloro-4-((5-isopropyl-1-methyl-6-oxo-1,6-dihydropyridazin-3-yl)oxy)phenyl)-1,2,4-triazine-3,5(2H,4H)-dione] | – | 24.7 | 79.2 | 17 | – | – |
| CC(C)c1cc(Oc2c(Cl)cc(-c3n[nH]c(=O)[nH]c3=O)cc2Cl)n[nH]c1=O [Compound 2, 6-(3,5-dichloro-4-((5-isopropyl-6-oxo-1,6-dihydropyridazin-3-yl)oxy)phenyl)-1,2,4-triazine-3,5(2H,4H)-dione] | – | 141 | 681 | 27.7 | – | – |
| CC(C)c1cc(Oc2c(Cl)cc(-c3nn(C)c(=O)[nH]c3=O)cc2Cl)n[nH]c1=O [Compound 3, 6-(3,5-dichloro-4-((5-isopropyl-6-oxo-1,6-dihydropyridazin-3-yl)oxy)phenyl)-2-methyl-1,2,4-triazine-3,5(2H,4H)-dione] | – | 114 | 1230 | 69.8 | – | – |
| CC(C)c1cc(Oc2c(Cl)cc(-c3nn(C(C)C)c(=O)[nH]c3=O)cc2Cl)n[nH]c1=O [Compound 4, 6-(3,5-dichloro-4-((5-isopropyl-6-oxo-1,6-dihydropyridazin-3-yl)oxy)phenyl)-2-isopropyl-1,2,4-triazine-3,5(2H,4H)-dione] | – | > 5000 | > 5000 | >3.0 | – | – |
| Cc1c(-c2n[nH]c(=O)[nH]c2=O)cc(Cl)c(Oc2cc(C(C)C)c(=O)n(C)n2)c1Cl [Compound 5, 6-(3,5-dichloro-4-((5-isopropyl-1-methyl-6-oxo-1,6-dihydropyridazin-3-yl)oxy)-2-methylphenyl)-1,2,4-triazine-3,5(2H,4H)-dione] | – | 98.6 | 62.6 | 2.3 | – | – |
| O=c1[nH]nc(-c2cc(Cl)c(Oc3cc(C4CC4)c(=O)[nH]n3)c(Cl)c2)c(=O)[nH]1 [Compound 6, 6-(3,5-dichloro-4-((5-cyclopropyl-6-oxo-1,6-dihydropyridazin-3-yl)oxy)phenyl)-1,2,4-triazine-3,5(2H,4H)-dione] | – | 196 | 981 | 23.6 | – | – |
| CC(C)c1cc(C(=O)c2c(Cl)cc(-c3n[nH]c(=O)[nH]c3=O)cc2Cl)nn(C)c1=O [Compound 7, 6-(3,5-dichloro-4-(5-isopropyl-1-methyl-6-oxo-1,6-dihydropyridazine-3-carbonyl)phenyl)-1,2,4-triazine-3,5(2H,4H)-dione] | – | 136 | 435 | 15.3 | – | – |
| CC(C)c1cc(C(=O)c2c(Cl)cc(-c3n[nH]c(=O)[nH]c3=O)cc2Cl)n[nH]c1=O [Compound 8, 6-(3,5-dichloro-4-(5-isopropyl-6-oxo-1,6-dihydropyridazine-3-carbonyl)phenyl)-1,2,4-triazine-3,5(2H,4H)-dione] | – | 1450 | 3670 | 9.5 | – | – |
| CC(C)c1cc(Oc2c(Cl)cc(-c3nn(C)c(=O)[nH]c3=O)cc2Cl)nn(C)c1=O [Compound 9, 6-(3,5-dichloro-4-((5-isopropyl-1-methyl-6-oxo-1,6-dihydropyridazin-3-yl)oxy)phenyl)-2-methyl-1,2,4-triazine-3,5(2H,4H)-dione] | – | 23.9 | 161 | 25.5 | – | – |
| CC(C)c1cc(C(=O)c2c(Cl)cc(-c3nn(C)c(=O)[nH]c3=O)cc2Cl)n[nH]c1=O [Compound 13, 6-(3,5-dichloro-4-(5-isopropyl-6-oxo-1,6-dihydropyridazine-3-carbonyl)phenyl)-2-methyl-1,2,4-triazine-3,5(2H,4H)-dione] | – | 750 | > 5000 | >27.4 | – | – |
| CC(C)c1cc(Cc2c(Cl)cc(-c3n[nH]c(=O)[nH]c3=O)cc2Cl)n[nH]c1=O [Compound 15, 6-(3,5-dichloro-4-((5-isopropyl-6-oxo-1,6-dihydropyridazin-3-yl)methyl)phenyl)-1,2,4-triazine-3,5(2H,4H)-dione] | – | 381 | 3340 | 31.2 | – | – |
| CC(C)c1cc(Cc2c(Cl)cc(-c3nn(C)c(=O)[nH]c3=O)cc2Cl)n[nH]c1=O [Compound 16, 6-(3,5-dichloro-4-((5-isopropyl-6-oxo-1,6-dihydropyridazin-3-yl)methyl)phenyl)-2-methyl-1,2,4-triazine-3,5(2H,4H)-dione] | – | 163 | 1210 | 28.3 | – | – |
| CC(C)c1cc(Cc2c(Cl)cc(-c3n[nH]c(=O)[nH]c3=O)cc2Cl)nn(C)c1=O [Compound 17, 6-(3,5-dichloro-4-((5-isopropyl-1-methyl-6-oxo-1,6-dihydropyridazin-3-yl)methyl)phenyl)-1,2,4-triazine-3,5(2H,4H)-dione] | – | 34.6 | 99.6 | 11.1 | – | – |
| CCn1nc(-c2cc(Cl)c(Oc3cc(C(C)C)c(=O)[nH]n3)c(Cl)c2)c(=O)[nH]c1=O [Compound 19, 6-(3,5-dichloro-4-((5-isopropyl-6-oxo-1,6-dihydropyridazin-3-yl)oxy)phenyl)-2-ethyl-1,2,4-triazine-3,5(2H,4H)-dione] | – | 1410 | > 5000 | 13.9 | – | – |
| CCOC(=O)Cn1nc(-c2cc(Cl)c(Oc3cc(C(C)C)c(=O)[nH]n3)c(Cl)c2)c(=O)[nH]c1=O [Compound 20, ethyl 2-(6-(3,5-dichloro-4-((5-isopropyl-6-oxo-1,6-dihydropyridazin-3-yl)oxy)phenyl)-3,5-dioxo-4,5-dihydro-1,2,4-triazin-2(3H)-yl)acetate] | – | 1930 | 1330 | 2.7 | – | – |
| CC(C)c1cc(Oc2c(Cl)cc(-c3nn(CC(F)(F)F)c(=O)[nH]c3=O)cc2Cl)n[nH]c1=O [Compound 21, 6-(3,5-dichloro-4-((5-isopropyl-6-oxo-1,6-dihydropyridazin-3-yl)oxy)phenyl)-2-(2,2,2-trifluoroethyl)-1,2,4-triazine-3,5(2H,4H)-dione] | – | 2880 | > 5000 | >9.5 | – | – |
| CC(C)c1cc(Oc2c(Cl)cc(-c3nn(CC#N)c(=O)[nH]c3=O)cc2Cl)n[nH]c1=O [Compound 22, 2-(6-(3,5-dichloro-4-((5-isopropyl-6-oxo-1,6-dihydropyridazin-3-yl)oxy)phenyl)-3,5-dioxo-4,5-dihydro-1,2,4-triazin-2(3H)-yl)acetonitrile] | – | 1170 | 3440 | 12.9 | – | – |
| CC(C)c1cc(Oc2c(Cl)cc(-c3nn(CC(F)F)c(=O)[nH]c3=O)cc2Cl)n[nH]c1=O [Compound 23, 6-(3,5-dichloro-4-((5-isopropyl-6-oxo-1,6-dihydropyridazin-3-yl)oxy)phenyl)-2-(2,2-difluoroethyl)-1,2,4-triazine-3,5(2H,4H)-dione] | – | 1380 | 3230 | 9.2 | – | – |
